In patent publication US8859559B2, “Substituted pyrazines and their use in the treatment of disease” (Boehringer Ingelheim International GmbH, priority 2011, dated 2014):

molecular target: T1, ENaC (Epithelial Sodium Channel) (Mus musculus, UniProt Q61180+Q9WU38+Q9WU39); experiment: Ussing chamber: inhibition of amiloride sensitive short circuit current (I_sc) in M-1 cells; assay type: cell-based; conditions: mouse kidney M-1 cells
T1 construct: Mouse kidney M-1 cells were cultivated in DMEM; endogenous in cells; host or cells: Mouse kidney M-1 cells (dexamethasone-treated, on transwell filters)
T1 sequence (Q61180 1-699): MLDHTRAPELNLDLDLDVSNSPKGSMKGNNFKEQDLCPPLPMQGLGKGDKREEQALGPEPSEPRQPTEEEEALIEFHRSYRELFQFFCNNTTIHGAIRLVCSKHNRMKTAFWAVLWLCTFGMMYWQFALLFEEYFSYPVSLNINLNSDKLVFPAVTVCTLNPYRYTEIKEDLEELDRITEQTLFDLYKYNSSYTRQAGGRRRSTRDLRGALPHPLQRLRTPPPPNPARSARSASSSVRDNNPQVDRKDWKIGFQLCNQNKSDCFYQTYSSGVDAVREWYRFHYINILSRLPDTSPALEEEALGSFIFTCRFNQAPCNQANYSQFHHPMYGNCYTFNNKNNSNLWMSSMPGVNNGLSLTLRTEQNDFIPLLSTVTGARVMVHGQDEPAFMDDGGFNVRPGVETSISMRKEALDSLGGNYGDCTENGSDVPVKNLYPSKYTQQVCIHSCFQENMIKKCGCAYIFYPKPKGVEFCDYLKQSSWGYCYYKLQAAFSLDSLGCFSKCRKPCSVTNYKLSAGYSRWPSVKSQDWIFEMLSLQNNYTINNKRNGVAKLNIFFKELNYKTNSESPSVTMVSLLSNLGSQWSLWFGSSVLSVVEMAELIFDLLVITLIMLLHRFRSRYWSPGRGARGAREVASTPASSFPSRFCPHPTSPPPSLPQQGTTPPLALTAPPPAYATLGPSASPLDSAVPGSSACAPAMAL
T1 sequence (Q9WU38 1-638): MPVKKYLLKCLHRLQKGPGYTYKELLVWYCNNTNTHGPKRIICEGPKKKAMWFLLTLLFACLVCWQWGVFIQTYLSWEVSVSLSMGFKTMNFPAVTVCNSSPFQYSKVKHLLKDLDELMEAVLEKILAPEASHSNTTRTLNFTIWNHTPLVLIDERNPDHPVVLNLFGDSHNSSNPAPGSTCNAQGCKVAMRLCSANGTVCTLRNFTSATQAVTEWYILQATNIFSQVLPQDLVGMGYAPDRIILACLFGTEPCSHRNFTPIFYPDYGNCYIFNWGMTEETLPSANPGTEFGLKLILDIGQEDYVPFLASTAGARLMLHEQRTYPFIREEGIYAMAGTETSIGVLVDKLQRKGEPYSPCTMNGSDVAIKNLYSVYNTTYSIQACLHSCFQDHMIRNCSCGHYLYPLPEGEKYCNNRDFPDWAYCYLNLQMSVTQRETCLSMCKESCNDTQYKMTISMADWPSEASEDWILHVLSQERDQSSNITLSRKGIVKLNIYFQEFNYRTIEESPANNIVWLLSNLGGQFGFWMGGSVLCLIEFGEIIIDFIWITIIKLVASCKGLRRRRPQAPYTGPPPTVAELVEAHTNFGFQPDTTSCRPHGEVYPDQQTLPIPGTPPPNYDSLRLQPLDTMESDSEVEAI
T1 sequence (Q9WU39 1-655): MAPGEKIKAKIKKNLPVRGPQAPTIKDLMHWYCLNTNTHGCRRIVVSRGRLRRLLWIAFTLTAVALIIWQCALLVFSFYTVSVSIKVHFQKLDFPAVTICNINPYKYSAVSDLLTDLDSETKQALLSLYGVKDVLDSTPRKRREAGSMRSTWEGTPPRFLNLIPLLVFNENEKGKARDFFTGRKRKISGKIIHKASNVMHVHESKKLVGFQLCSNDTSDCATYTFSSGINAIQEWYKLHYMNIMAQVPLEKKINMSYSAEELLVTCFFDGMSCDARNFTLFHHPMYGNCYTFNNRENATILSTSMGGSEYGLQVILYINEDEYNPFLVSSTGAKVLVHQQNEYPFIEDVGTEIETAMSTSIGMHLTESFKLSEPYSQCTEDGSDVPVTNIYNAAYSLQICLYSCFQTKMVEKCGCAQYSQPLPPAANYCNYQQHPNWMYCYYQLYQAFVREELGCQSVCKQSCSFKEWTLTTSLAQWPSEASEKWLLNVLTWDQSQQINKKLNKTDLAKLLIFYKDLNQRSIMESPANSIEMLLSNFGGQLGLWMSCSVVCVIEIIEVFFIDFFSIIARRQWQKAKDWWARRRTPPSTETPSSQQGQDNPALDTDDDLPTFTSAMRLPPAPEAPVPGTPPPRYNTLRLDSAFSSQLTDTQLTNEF
Experimental: Mouse kidney M-1 cells were cultivated in DMEM containing 5% FCS and 5 μM dexamethasone for 10 to 12 days on polyester transwell filters. Filters were inserted into a teflon-coated well-plate which fit into the in-house ussing chamber system. Prior to measurement the medium of M-1 cells was replaced with Caco-2 transport buffer (Invitrogen, Germany). During measurements, the Ussing chamber temperature was kept at 37° C. Short circuit currents (I_sc) were measured in the voltage-clamp mode using an in-house built amplifier (Boehringer Ingelheim, Biberach) with the software package Lab View for data acquisition and analysis. The transepithelial electrical resistance (TEER) was determined by the application of voltage steps of ±5 mV every 5 sec. Compounds were administered at a final concentration of 3 μM or at increasing concentrations (1-3-10 μM) to the apical solution. At the end of each experiment the amiloride sensitive I_SC was measured by adding 3 μM amiloride to the apical compartment. Results are expressed as inhibition in percent of the amiloride effect or as IC50. With the example compounds given above, the following IC50 values were determined in the Ussing Chamber assay: […]

Row | SMILES | IC50
1 | NC(=NC(=O)c1nc(Cl)c(N)nc1N)NC1CCN(Cc2ccc(S(=O)(=O)NCCO)cc2)CC1 [Example 1.63] | 0.006 µM
2 | NC(=NC(=O)c1nc(Cl)c(N)nc1N)NC1CCN(Cc2ccc(OCC(=O)O)c(OCC(=O)O)c2)CC1 [Example 8.5] | 0.151 µM
3 | C[N+](C)(C)CCNC(=O)c1cccc(CN2CCC(NC(N)=NC(=O)c3nc(Cl)c(N)nc3N)CC2)c1 [Example 2.3] | 0.003 µM
4 | NC(=NC(=O)c1nc(Cl)c(N)nc1N)NC1CCN(Cc2ccc(-c3cn(CCOCCOCCOCCNC(=O)c4cc(OCCOCCOCCO)cc(OCCOCCOCCO)c4)nn3)cc2)CC1 [Example 5.7] | 0.045 µM
5 | COc1cc(CN2CCC(NC(N)=NC(=O)c3nc(Cl)c(N)nc3N)CC2)cc(C(=O)O)c1 [Example 1.64] | 0.017 µM
6 | NC(=NC(=O)c1nc(Cl)c(N)nc1N)NC1CCN(Cc2cccc(-c3cn(CCOCCOCCOCCNC(=O)c4cc(OCCOCCOCCOCCO)cc(OCCOCCOCCOCCO)c4)nn3)c2)CC1 [Example 5.12] | 0.062 µM
7 | NC(=NC(=O)c1nc(Cl)c(N)nc1N)NC1CCN(Cc2ccc(C(=O)NCCOCCOCCOCCn3cc(CN4CCNCC4)nn3)cc2)CC1 [Example 3.10] | 0.023 µM
8 | [N-]=[N+]=NCCOCCOCCOCCNC(=O)c1ccc(CN2CCC(NC(N)=NC(=O)c3nc(Cl)c(N)nc3N)CC2)cc1 [Example 1.7] | 0.004 µM
9 | CN(C)CCNC(=O)c1ccc(CN2CCC(NC(N)=NC(=O)c3nc(Cl)c(N)nc3N)CC2)cc1 [Example 1.14] | 0.001 µM
10 | N/C(=N\C(=O)c1nc(Cl)c(N)nc1N)NC1CCN(Cc2ccc(CCn3cc(CCC(=O)N(CCO)CCO)nn3)cc2)CC1 [Example 3.1] | 0.029 µM
11 | NC(=NC(=O)c1nc(Cl)c(N)nc1N)NC1CCN(Cc2ccc(-c3cn(CCOCCOCCOCCOCCOCCO)nn3)cc2)CC1 [Example 3.27] | 0.001 µM
12 | N/C(=N\C(=O)c1nc(Cl)c(N)nc1N)NC1CCN(C(C(=O)O)c2ccccc2)CC1 (centres unmarked) [Example 8.1] | 0.136 µM
13 | [N-]=[N+]=NCCOCCOCCOCCn1cc(-c2ccc(CN3CCC(NC(N)=NC(=O)c4nc(Cl)c(N)nc4N)CC3)cc2)nn1 [Example 3.32] | 0.025 µM
14 | N/C(=N\C(=O)c1nc(Cl)c(N)nc1N)NC1CCN(Cc2ccccc2)CC1 [Example 1.25] | 0.006 µM
15 | NC(=NC(=O)c1nc(Cl)c(N)nc1N)NC1CCN(Cc2ccc(-c3cn(CCOCCOCCOCCNC(=O)c4cc(OCCOCCOCCOCCOC(c5ccccc5)(c5ccccc5)c5ccccc5)cc(OCCOCCOCCOCCOC(c5ccccc5)(c5ccccc5)c5ccccc5)c4)nn3)cc2)CC1 [Example 3.31] | 0.049 µM
16 | COC(=O)c1ccc(=O)n(Cc2ccc(CN3CCC(NC(N)=NC(=O)c4nc(Cl)c(N)nc4N)CC3)cc2)c1 [Example 1.5] | 0.007 µM
17 | COc1ccc(CCN2CCC(NC(N)=NC(=O)c3nc(Cl)c(N)nc3N)CC2)cc1 [Example 1.19] | 0.012 µM
18 | NC(=NC(=O)c1nc(Cl)c(N)nc1N)NC1CCN(Cc2cccc(-c3cn(CCOCCOCCOCCNCCOCCOCCO)nn3)c2)CC1 [Example 5.11] | 0.007 µM
19 | NC(=NC(=O)c1nc(Cl)c(N)nc1N)NC1CCN(Cc2ccc(-c3cn(CCOCCOCCOCCNC(=O)c4cc(OCCOCCOCCOCCO)cc(OCCOCCOCCOCCO)c4)nn3)cc2)CC1 [Example 5.5] | 0.109 µM
20 | NC(=NC(=O)c1nc(Cl)c(N)nc1N)NC1CCN(Cc2ccc(-n3cc(CCC(=O)N(CCOCCOCCO)CCOCCOCCO)nn3)cc2)CC1 [Example 3.16] | 0.018 µM
21 | NC(=NC(=O)c1nc(Cl)c(N)nc1N)NC1CCN(Cc2ccc(C(=O)NCCOCCOCCOCCn3cc(COCCO)nn3)cc2)CC1 [Example 3.8] | 0.019 µM
22 | CC[N+](CC)(CC)Cc1ccc(CCn2cc(-c3cccc(CN4CCC(NC(N)=NC(=O)c5nc(Cl)c(N)nc5N)CC4)c3)nn2)cc1 [Example 3.38] | 0.001 µM
23 | N#Cc1ccc(OCCN2CCC(NC(N)=NC(=O)c3nc(Cl)c(N)nc3N)CC2)cc1 [Example 1.21] | 0.011 µM
24 | NC(=NC(=O)c1nc(Cl)c(N)nc1N)NC1CCN(Cc2ccc(CCn3cc(COc4cccc(C(=O)NCCOCCO)c4)nn3)cc2)CC1 [Example 3.3] | 0.024 µM
25 | C#CCCCCOC(=O)c1ccc(CN2CCC(NC(N)=NC(=O)c3nc(Cl)c(N)nc3N)CC2)cc1 [Example 1.9] | 0.008 µM
26 | CN(C)CCN(CCN(C)C)C(=O)c1ccc(CN2CCC(NC(N)=NC(=O)c3nc(Cl)c(N)nc3N)CC2)cc1 [Example 2.2] | 0.006 µM
27 | NC(=NC(=O)c1nc(Cl)c(N)nc1N)NC1CCN(Cc2ccc(C(=O)NCCCn3ccnc3)cc2)CC1 [Example 1.23] | 0.002 µM

Continued, values first:

Row | IC50 | SMILES
28 | 0.006 µM | NC(=NC(=O)c1nc(Cl)c(N)nc1N)NC1CCN(Cc2ccc(-n3cc(COCCO)nn3)cc2)CC1 [Example 3.11]
29 | 0.057 µM | NC(=NC(=O)c1nc(Cl)c(N)nc1N)NC1CCN(Cc2ccc(-n3cc(CCC(=O)O)nn3)cc2)CC1 [Example 3.13]
30 | 0.008 µM | NC(=NC(=O)c1nc(Cl)c(N)nc1N)NC1CCN(Cc2ccc(-n3cc(COCC(CO)(CO)CO)nn3)cc2)CC1 [Example 3.19]
31 | 0.01 µM | N/C(=N\C(=O)c1nc(Cl)c(N)nc1N)NC1CCN(Cc2ccc(CO)cc2)CC1 [Example 1.2]
32 | 0.477 µM | N/C(=N\C(=O)c1nc(Cl)c(N)nc1N)NC1CCN(Cc2ccc(CP(=O)(O)O)cc2)CC1 [Example 7.1]
33 | 0.002 µM | N#Cc1ccc(CN2CCC(N/C(N)=N/C(=O)c3nc(Cl)c(N)nc3N)CC2)cc1 [Example 1.40]
34 | 0.022 µM | NC(=NC(=O)c1nc(Cl)c(N)nc1N)NC1CCN(Cc2ccc(CCn3cc(COCC(CO)(CO)CO)nn3)cc2)CC1 [Example 3.7]
35 | 0.006 µM | NC(=NC(=O)c1nc(Cl)c(N)nc1N)NC1CCN(Cc2ccc(-n3cc(COC[B-](F)(F)F)nn3)cc2)CC1 [Example 3.14]
36 | 0.002 µM | CN(C)Cc1cn(-c2ccc(CN3CCC(NC(N)=NC(=O)c4nc(Cl)c(N)nc4N)CC3)cc2)nn1 [Example 3.15]
37 | 0.007 µM | NCc1ccc(CN2CCC(N/C(N)=N/C(=O)c3nc(Cl)c(N)nc3N)CC2)cc1 [Example 9.1]
38 | 0.21 µM | NC(=NC(=O)c1nc(Cl)c(N)nc1N)NC1CCN(Cc2ccc(-n3cc(C(=O)O)ccc3=O)cc2)CC1 [Example 8.4]
39 | 0.03 µM | NC(=NC(=O)c1nc(Cl)c(N)nc1N)NC1CCN(Cc2ccc(CCC(=O)O)cc2)CC1 [Example 8.14]
40 | 0.006 µM | [N-]=[N+]=Nc1ccc(CN2CCC(N/C(N)=N/C(=O)c3nc(Cl)c(N)nc3N)CC2)cc1 [Example 1.10]
41 | 0.007 µM | N/C(=N\C(=O)c1nc(Cl)c(N)nc1N)NC1CCN(Cc2ccc(B(O)O)cc2)CC1 [Example 1.15]
